According to patent publication US20230405057A1, “MEDICAL COMPOSITIONS AND THEIR USE IN TREATING INFLAMMATORY BOWEL DISEASE” (BIOMILLENIA SAS, priority 2019, published 2023):
“Also recorded” adds a separate entry of the source.

Assays:
Assay type in all cases: cell-based
Malassezia globosa [1] = experiment: Modified disc diffusion assay with living Acetobacter culture; details: 6 mm discs soaked with 15 ul exponentially growing Acetobacter culture or ketoconazole 1 mg/mL in DMSO; 5 days incubation
Protocol: (§1) FIG. 1|Inhibition assays of M. restricts and M. globose by growth of Acetobacter fabarum. Discs were soaked with ketoconazole (1 mg/ml in DMSO) or exponentially growing Acetobacter fabarum culture and placed on agar plates containing a soft layer inoculated with a single culture of the different Malassezia species to be tested. In the upper panel, inhibition of Malassezia globosa is shown; in the bottom panel, Malassezia restricta is shown.
(§2) In order to identify strains whose growth inhibits Malassezia, inhibition assays were performed using a modified disc diffusion method. This method is similar to the classical disk diffusion method that consists in depositing discs imbibed with potential inhibitory substances on Petri plates containing a strain of interest, except that the disks were imbibed with a living culture of an Acetobacter strain. After optimal growth of the strain of interest, growth inhibition can be observed around discs on which the growth of inhibitory bacteria has occurred. Ketoconazole (at 1 mg/mL in DMSO) was used as a positive control for Malassezia growth inhibition. The effect of growth of Acetobacter was tested on Malassezia restricta and Malassezia globosa. All Malassezia strains were streaked from −80° C. stock on Modified Leeming and Notman (MLN) agar plates and incubated 10 days at 30° C. […]

Malassezia restricta [2] = experiment: as above; details: 6 mm discs soaked with 15 ul exponentially growing Acetobacter culture or ketoconazole 1 mg/mL in DMSO; 5 days incubation
Protocol: as §1, §2

Malassezia globosa [3] = experiment: Disc diffusion growth inhibition assay (supernatants); details: 6 mm discs soaked with 15 ul supernatant or ketoconazole 1 mg/ml in DMSO; soft agar lawn; 5 days incubation
Protocol: (§3) FIG. 1|Inhibition assays of the fungicide ketoconazole as positive control for inhibition and Kazachstania unispora supernatant on M. sympodialis, M. furfur, M. restricts and M. globosa. Inhibition assays were performed using the disc diffusion method. Discs were soaked with ketoconazole (1 mg/ml) or K. unispora supernatant and placed on agar plates containing a soft layer inoculated with a single culture of the different Malassezia species to be tested.
(§4) In order to identify strains inhibiting Malassezia growth, inhibition assays were performed using the disc diffusion method. This method consists in disposing discs imbibed with potential inhibitory substances on Petri plates containing a strain of interest. After optimal growth of the strain of interest, growth inhibition can be observed around discs soaked with substances having an inhibitory effect. Potential inhibitory substances tested in this experiment are supernatants obtained after individually culturing a collection of fungal and bacterial strains. After an incubation of 10 days in their optimal broth, each culture was centrifuged and the supernatant was filtered and further stored at −20° C. Ketoconazole, a fungicide, was used as a positive control for Malassezia growth inhibition. It was diluted in dimethyl sulfoxide at 1 mg/ml. The collection of supernatants was tested on the following species from the genus Malassezia: Malassezia restricta, Malassezia globosa, Malassezia furfur and Malassezia sympodialis. All strains were streaked from −80° C. stock on Modified Leeming and Notman (MLN) agar plates and incubated 10 days at 30° C. A 5 ml liquid culture of each species was made in MLN broth and incubated at 30° C. for 2 days for M. furfur and M. sympodialis and 5 days for M. restricta and M. globosa. To allow a lawn growth of the different Malassezia strains tested, Petri plates were prepared as follows: a bottom layer of 50 ml Modified Sabouraud Dextrose (MSD) agar was poured in Petri plates. The soft agar, constituting the top layer, was a mix of 12.5 ml MSD agar, 10.5 ml MLN broth and 2 ml of liquid culture. Plates were allowed to dry for one hour, then, 6 mm-diameter Whatman™ discs were soaked with 15 ul of each thawed supernatants and ketoconazole and placed on the soft agar plate containing the solidified Malassezia monoculture layer. After an incubation of 5 days, inhibition area could be easily observed around discs. As expected, ketoconazole inhibited all 4 Malassezia species tested in this experiment. […] The strain from which the inhibitory supernatant has been produced was further sequenced using the Sanger technology. The internal transcribed spacer (ITS) of this strain was taxonomically assigned to the yeast Kazachstania unispora (BLASTn, 99% identity, 99% query cover, e-value 0.00).

Malassezia furfur = experiment: as above; details: 6 mm discs soaked with 15 ul supernatant or ketoconazole 1 mg/ml in DMSO; soft agar lawn; 5 days incubation
Protocol: as §3, §4

Malassezia sympodialis = experiment: as above; details: 6 mm discs soaked with 15 ul supernatant or ketoconazole 1 mg/ml in DMSO; soft agar lawn; 5 days incubation
Protocol: as §3, §4

Malassezia restricta [4] = experiment: as above; details: 6 mm discs soaked with 15 ul supernatant or ketoconazole 1 mg/ml in DMSO; soft agar lawn; 5 days incubation
Protocol: as §3, §4

CC(=O)N1CCN(c2ccc(OCC3COC(Cn4ccnc4)(c4ccc(Cl)cc4Cl)O3)cc2)CC1 (stereo not drawn) [ketoconazole]
growth inhibition (inhibition halo around disc) of Malassezia globosa (Malassezia globosa [1]): inhibits growth; also recorded: inhibited | growth inhibition (inhibition halo around disc) of Malassezia restricta (Malassezia restricta [2]): inhibits growth; also recorded: inhibited | growth inhibition (inhibition halo around disc) of Malassezia globosa (Malassezia globosa [3]): inhibits growth; also recorded: inhibited | growth inhibition (inhibition halo around disc) of Malassezia furfur (Malassezia furfur): inhibits growth; also recorded: inhibited | growth inhibition (inhibition halo around disc) of Malassezia sympodialis (Malassezia sympodialis): inhibits growth; also recorded: inhibited | growth inhibition (inhibition halo around disc) of Malassezia restricta (Malassezia restricta [4]): inhibits growth; also recorded: inhibited
